The text below walks through data of patent US7211576B2, “Diaminothiazoles” (Hoffmann-La Roche Inc., priority 2004, dated 2007).

Common to all, as to type: biochemical
Assay [1] deals with human cyclin D1-CDK4 (Homo sapiens, UniProt P11802). The assay can be described thus: FlashPlate kinase assay, cyclin D1-CDK4. Conditions: Rb protein substrate, 1 μM ATP, 33P-ATP, 30 minutes room temperature; read-out: CDK4 IC50. The method, then:
To determine inhibition of Cdk4, Cdk2 and Cdk1 activity, kinase assays were conducted using FlashPlate™ assays (NEN™-Life Science Products). FlashPlate assays were performed using recombinant human cyclin B-CDK1, human cyclin E-CDK2 or human cyclin D1-CDK4 complexes. GST-cyclinE (GST-cycE), CDK2, GST-cyclinB (GST-cycB), CDK1, GST-CDK4 and cyclin D1 (cycD1) cDNA clones in baculovirus vectors were provided by Dr. W. Harper at the Baylor College of Medicine, Houston, Tex.
(§1) The expression of the 62Kd protein was under the control of an IPTG inducible promoter in an M15 E. coli strain. Cells were lysed by sonication and purification was carried out by binding lysates at pH 8.0 to a Ni-chelated agarose column pretreated with 1 mM imidazole. The resin was then washed several times with incrementally decreasing pH buffers to pH 6.0, and eluted with 500 mM imidazole. Eluted protein was dialysed against 20 mM HEPES pH 7.5, 30% glycerol, 200 mM NaCl, and 1 mM DTT. Purified Rb fusion protein stocks were quantitated for protein concentration, aliquoted, and stored at −70° C.
(§2) For all three kinase assays reported herein, 96-well FlashPlates were coated with Rb protein at 10 μg/ml, using 100 μl per well. Plates were incubated at 4° C. overnight or at room temperature for 3 hours on a shaker. To control for nonspecific phosphorylation, one row of wells was coated with 100 μl/well coating buffer (20 mM HEPES, 0.2 M NaCl). Plates were then washed twice with wash buffer (0.01% Tween 20 in phosphate-buffered saline). Compounds to be tested (“test compounds”) were added to the wells at 5× final concentration. Reactions were initiated by immediate addition of 40 μl reaction mix (25 mM HEPES, 20 mM MgCl2, 0.002% Tween 20, 2 mM DTT, 1 μM ATP, 4 nM ^33P-ATP) and a sufficient amount of enzyme to give counts that were at least 10-fold above background. Plates were incubated at room temperature on a shaker for 30 minutes. Plates were washed four times with the wash buffer, sealed, and counted on the TopCount scintillation counter (Packard Instrument Co., Downers Grove, Ill.]. The percent inhibition of Rb phosphorylation, which is a measure of the inhibition of CDK activity, was determined according to the following formula:
[formula] where “test compound” refers to the average counts per minute of the test duplicates, “nonspecific” refers to the average counts per minute when no CyclinD/Cdk4, etc., was added, and “total” refers to the average counts per minute when no compound was added.

Assay [2] addresses human cyclin B-CDK1 (Homo sapiens, UniProt P06493). The assay can be described thus: FlashPlate kinase assay, cyclin B-CDK1. Conditions: Rb protein substrate, 1 μM ATP, 33P-ATP, 30 minutes room temperature. Here is the method:
(§3) To determine inhibition of Cdk4, Cdk2 and Cdk1 activity, kinase assays were conducted using FlashPlate™ assays (NEN™-Life Science Products). FlashPlate assays were performed using recombinant human cyclin B-CDK1, human cyclin E-CDK2 or human cyclin D1-CDK4 complexes. GST-cyclinE (GST-cycE), CDK2, GST-cyclinB (GST-cycB), CDK1, GST-CDK4 and cyclin D1 (cycD1) cDNA clones in baculovirus vectors were provided by Dr. W. Harper at the Baylor College of Medicine, Houston, Tex. Proteins were co-expressed in High Five™ insect cells and the complex was purified on glutathione Sepharose resin (Pharmacia, Piscataway, N.J.) as previously described (Harper, J. W. et al. Cell 1993, 75, 805–816). A 6×-Histidine tagged truncated form of retinoblastoma (Rb) protein (amino acid 386–928) was used as the substrate for the cycD1-CDK4, cycB-CDK1 and the cycE-CDK2 assays (the expression plasmid was provided by Dr. Veronica Sullivan, Department of Molecular Virology, Roche Research Centre, Welwyn Garden City, United Kingdom). The Rb protein is a natural substrate for phosphorylation by CDK4, CDK2 and CDK1 (see Herwig and Strauss Eur. J. Biochem. Vol. 246 (1997) pp. 581–601 and the references cited therein).
as §1, §2
(§4) [formula] where “test compound” refers to the average counts per minute of the test duplicates, “nonspecific” refers to the average counts per minute when no CyclinD/Cdk4, etc., was added, and “total” refers to the average counts per minute when no compound was added. The IC50 value is the concentration of test compound that reduces by 50% the protein-kinase induced incorporation of the radiolabel under the test conditions described.

The target in assay [3] is human cyclin E-CDK2 (Homo sapiens, UniProt P24941). The assay can be described thus: FlashPlate kinase assay, cyclin E-CDK2. Conditions: Rb protein substrate, 1 μM ATP, 33P-ATP, 30 minutes room temperature. Here is the method: as §3, §1, §2, §4

human cyclin D1-CDK4, sequence (P11802 whole entry): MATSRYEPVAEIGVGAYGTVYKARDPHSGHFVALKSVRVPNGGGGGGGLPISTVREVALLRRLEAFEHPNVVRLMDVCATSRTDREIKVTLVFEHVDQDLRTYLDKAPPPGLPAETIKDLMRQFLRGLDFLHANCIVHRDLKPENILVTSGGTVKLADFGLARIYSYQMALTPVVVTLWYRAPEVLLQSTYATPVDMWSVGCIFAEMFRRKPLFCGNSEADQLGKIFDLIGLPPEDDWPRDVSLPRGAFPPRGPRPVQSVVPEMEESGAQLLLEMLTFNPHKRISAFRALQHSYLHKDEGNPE
human cyclin D1-CDK4, sequence (P24385 whole entry partner): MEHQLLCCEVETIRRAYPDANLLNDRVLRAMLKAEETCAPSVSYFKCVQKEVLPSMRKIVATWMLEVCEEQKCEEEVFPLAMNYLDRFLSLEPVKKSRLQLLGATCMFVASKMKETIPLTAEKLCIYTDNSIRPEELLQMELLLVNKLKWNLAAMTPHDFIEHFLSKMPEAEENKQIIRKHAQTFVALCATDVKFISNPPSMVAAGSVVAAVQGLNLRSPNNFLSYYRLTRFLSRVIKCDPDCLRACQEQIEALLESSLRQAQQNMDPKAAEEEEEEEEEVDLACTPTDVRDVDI
human cyclin B-CDK1, sequence (P06493 whole entry): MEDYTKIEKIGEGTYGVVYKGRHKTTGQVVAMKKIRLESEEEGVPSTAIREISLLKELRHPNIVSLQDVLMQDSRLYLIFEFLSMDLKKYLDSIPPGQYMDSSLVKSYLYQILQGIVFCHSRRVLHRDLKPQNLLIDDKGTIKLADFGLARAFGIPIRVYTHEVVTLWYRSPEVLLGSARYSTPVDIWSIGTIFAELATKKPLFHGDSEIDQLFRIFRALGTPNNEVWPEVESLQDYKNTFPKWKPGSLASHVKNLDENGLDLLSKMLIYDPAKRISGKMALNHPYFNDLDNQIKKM
human cyclin B-CDK1, sequence (P14635 whole entry partner): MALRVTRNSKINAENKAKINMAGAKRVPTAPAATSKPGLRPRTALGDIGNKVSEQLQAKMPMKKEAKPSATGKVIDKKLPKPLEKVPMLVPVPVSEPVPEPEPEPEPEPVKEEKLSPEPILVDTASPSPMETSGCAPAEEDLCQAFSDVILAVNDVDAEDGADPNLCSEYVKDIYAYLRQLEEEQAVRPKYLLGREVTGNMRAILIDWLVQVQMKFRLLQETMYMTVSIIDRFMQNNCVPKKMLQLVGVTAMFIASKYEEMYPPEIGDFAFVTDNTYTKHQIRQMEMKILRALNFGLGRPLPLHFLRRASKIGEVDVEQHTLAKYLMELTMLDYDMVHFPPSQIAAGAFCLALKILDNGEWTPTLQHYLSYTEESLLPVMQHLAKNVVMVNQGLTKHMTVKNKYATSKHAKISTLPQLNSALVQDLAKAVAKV

Broadly, the IC50 is the point on the concentration scale where inhibition reaches its midpoint. Take `Nc1nc(Nc2ccc(N3CCC(N4CCCC4)CC3)cc2)sc1C(=O)c1cccc(O)c1` [Example 96, {4-Amino-2-[4-(4-pyrrolidin-1-yl-piperidin-1-yl)-phenylamino]-thiazol-5-yl}-(3-hydroxy-phenyl)-methanone]: the IC50 in assay [1] was 37 nM; in assay [2], 1180 nM; in assay [3] it was 4060 nM.
As for `CN(C)C1CCN(c2ccc(Nc3nc(N)c(C(=O)c4cccc(C#N)c4)s3)cc2)CC1` [Example 88, 3-{4-Amino-2-[4-(4-dimethylamino-piperidin-1-yl)-phenylamino]-thiazole-5-carbonyl}-benzonitrile], the half-maximal inhibitory concentration (IC50) in assay [1] amounted to 15 nM; in assay [2] it was 940 nM; in assay [3], 3910 nM.
In the case of `Nc1nc(Nc2ccc(N3CCC(N4CCCCC4)CC3)cc2)sc1C(=O)c1ccc(F)c(F)c1` [Example 59, [4-Amino-2-(4-[1,4′]bipiperidinyl-1′-yl-phenylamino)-thiazol-5-yl]-(3,4-difluoro-phenyl)-methanone], the IC50 in assay [1] was found to be 61 nM; in assay [2], 4630 nM; in assay [3], 3090 nM.
As for `Nc1nc(Nc2ccc(N3CCC(N4CCCCC4)CC3)cc2)sc1C(=O)c1ccc(Cl)c([N+](=O)[O-])c1` [Example 62, [4-Amino-2-(4-[1,4′]bipiperidinyl-1′-yl-phenylamino)-thiazol-5-yl]-(4-chloro-3-nitro-phenyl)-methanone], the concentration for half-maximal inhibition (IC50) in assay [1] was 278 nM; in assay [2], 4210 nM; in assay [3] it was 4170 nM.
In the case of `Nc1nc(Nc2ccc(N3CCC(N4CCOCC4)CC3)cc2)sc1C(=O)c1cccc(F)c1` [Example 99, {4-Amino-2-[4-(4-morpholin-4-yl-piperidin-1-yl)-phenylamino]-thiazol-5-yl}-(3-fluoro-phenyl)-methanone], the IC50 was determined as 35 nM in assay [1], 450 nM in assay [2] and 550 nM in assay [3].
Turning to `Nc1nc(Nc2ccc(N3CCC(N4CCCC(O)C4)CC3)cc2)sc1C(=O)c1cc(F)cc(F)c1` (stereo not drawn) [Example 73, {4-Amino-2-[4-(3-hydroxy-[1,4′]bipiperidinyl-1′-yl)-phenylamino]-thiazol-5-yl}-(3,5-difluoro-phenyl)-methanone], the half-inhibitory concentration (IC50) in assay [1] stood at 88 nM; in assay [2], 2590 nM; in assay [3], 8050 nM.
Take `CN(C)C1CCN(c2ccc(Nc3nc(N)c(C(=O)c4ccc(Cl)c(Cl)c4)s3)cc2)CC1` [Example 85, {4-Amino-2-[4-(4-dimethylamino-piperidin-1-yl)-phenylamino]-thiazol-5-yl}-(3,4-dichloro-phenyl)-methanone]: the IC50 in assay [1] is 98 nM; in assay [2] it was 510 nM; in assay [3], 2260 nM.
With `Nc1nc(Nc2ccc(N3CCC(N4CCCCC4)CC3)cc2)sc1C(=O)c1ccc(O)cc1` [Example 29, [4-Amino-2-(4-[1,4′]bipiperidinyl-1′-yl-phenylamino)-thiazol-5-yl]-(4-hydroxy-phenyl)-methanone], the IC50 in assay [1] worked out at 55 nM; in assay [2] it was 1230 nM; in assay [3], 3990 nM.
Regarding `N#Cc1cccc(C(=O)c2sc(Nc3ccc(N4CCC(N5CCCCC5)CC4)cc3)nc2N)c1` [Example 64, 3-[4-Amino-2-(4-[1,4′]bipiperidinyl-1′-yl-phenlamino)-thiazole-5-carbonyl]-benzonitrile], the IC50 was 15 nM in assay [1], 1280 nM in assay [2] and 2700 nM in assay [3].
Regarding `COc1ccc(C(=O)c2sc(Nc3ccc(N4CCC(N5CCOCC5)CC4)cc3)nc2N)cc1[N+](=O)[O-]` [Example 106, {4-Amino-2-[4-(4-morpholin-4-yl-piperidin-1-yl)-phenylamino]-thiazol-5-yl}-(4-methoxy-3-nitro-phenyl)-methanone], the IC50 in assay [1] is 52 nM; in assay [2], 2270 nM; in assay [3], 4830 nM.
`Nc1nc(Nc2ccc(N3CCC(N4CCCC4)CC3)cc2)sc1C(=O)c1ccc(O)cc1` [Example 28, {4-Amino-2-[4-(4-pyrrolidin-1-yl-piperidin-1-yl)-phenylamino]-thiazol-5-yl}-(4-hydroxy-phenyl)-methanone]: the IC50 was 53 nM in assay [1], 1170 nM in assay [2] and 4180 nM in assay [3].
For `COc1cccc(C(=O)c2sc(Nc3ccc(N4CCC(N5CCOCC5)CC4)cc3)nc2N)c1` [Example 102, {4-Amino-2-[4-(4-morpholin-4-yl-piperidin-1-yl)-phenylamino]-thiazol-5-yl}-(3-methoxy-phenyl)-methanone], the 50% inhibitory concentration (IC50) in assay [1] worked out at 29 nM; in assay [2], 1990 nM; in assay [3], 4800 nM.
For `N#Cc1cccc(C(=O)c2sc(Nc3ccc(N4CCC(N5CCOCC5)CC4)cc3)nc2N)c1` [Example 104, 3-{4-Amino-2-[4-(4-morpholin-4-yl-piperidin-1-yl)-phenylamino]-thiazole-5-carbonyl}-benzonitrile], in that order: 31 nM, 1280 nM and 2000 nM.
On to `COc1cccc(C(=O)c2sc(Nc3ccc(N4CCC(N(C)C)CC4)cc3)nc2N)c1[N+](=O)[O-]` [Example 49, {4-Amino-2-[4-(4-dimethylamino-piperidin-1-yl)-phenylamino]-thiazol-5-yl}-(3-methoxy-2-nitro-phenyl)-methanone], for which the IC50 in assay [1] was found to be 8 nM; in assay [2], 5 nM; in assay [3] it was 136 nM.
